Experimental findings from patent publication US20230165872A1, “COMBINATION OF BCMA-DIRECTED T CELL THERAPY AND AN IMMUNOMODULATORY COMPOUND” (Juno Therapeutics, Inc., priority 2020, published 2023) are described below.

The test system of one test is RPMI-8226 target cells. Nature of the test: Rechallenge with RPMI-8226 after concurrent compound treatment during chronic stimulation (cytolysis, cytokines). It counts as cell-based, human. The procedure:
Cryofrozen anti-BCMA CAR T cells, produced substantially as described in Example 1 and formulated at a 1:1 ratio of CD4+ and CD8^+ T cells, were thawed. To subject cells to chronic stimulation conditions, the anti-BCMA CAR+ T cells were stimulated with 50 μg BCMA conjugated beads (diameter about 4.5 μm from a 50 μg/ml BCMA-conjugated bead composition, generated as described in Example 2) at a ratio of T cells to beads of 1:1 in the presence or absence of Compound A (iberdomide, (S)-3-[4-(4-morpholin-4-ylmethyl-benzyloxy)-1-oxo-1,3-dihydro-isoindol-2-yl]-piperidine-2,6-dione) (1 nM or 10 nM), Compound B ((S)-4-(4-(4-(((2-(2,6-dioxopiperidin-3-yl)-1-oxoisoindolin-4-yl)oxy)methyl)benzyl)piperazin-1-yl)-3-fluorobenzonitrile) (0.1 nM or 1 nM), or DMSO vehicle control. The cells were then incubated at 37° C., 5% CO2 for 7 days.
CAR T cells that had been stimulated for 7 days with cultured with 50 μg BCMA-coated magnetic beads concurrently in the presence of the cell immunomodulatory compound were washed free of compound and cells were debeaded. The anti-BCMA CAR T cells that had been stimulated for 7 days with BCMA-conjugated beads in the presence of the compounds were co-cultured with RPMI-8226 target cells (labeled with NucLightRed as described in Example 2) at a 1:1 (effector:target) ratio. Killing activity was monitored over 200 hours by measuring NucLightRed (NLR)-positive target cells. The total cell number of NLR-expressing RPMI targets cells was determined by normalizing cell number over time to the number of cells at the initiation of the co-culture (t=0) for each respective condition.
For cytokine measurements, cell-free supernatants were collected from the cytolytic assay described above 24 hours after plating. Cytokine levels of IFNg, IL-2, and TNFalpha (TNFα) was measured in the supernatant.
Cryofrozen anti-BCMA CAR T cells, produced substantially as described in Example 1 and formulated at a 1:1 ratio of CD4+ and CD8+ T cells, were thawed. […] The cells were then incubated at 37° C., 5% CO2 for 7 days.
Cytolytic activity was assessed using OPM-2 and RPMI-8226 BCMA expressing target cells transduced with NucLight Red, a red fluorescent protein detectable by microscopy, to allow for measurement of target cell death. Anti-BCMA CAR T cells that had been stimulated for 7 days with BCMA-conjugated beads in the presence of the compounds were co-cultured with RPMI-8226 target cells at a 0.3:1 (effector:target) or 1:1 ratio. Cultures were incubated at 37° C., 5% CO2, and images were taken every 2 hours over 5-7 days with an Essen IncuCyte Zoom live-cell analysis system to track NucLightRed-positive target cells.
For cytokine measurements, cell-free supernatants were collected from the cytolytic assay described above 24 hours after plating. Cytokine levels were measured using IFNg, IL-2, and TNFalpha Meso Scale Discovery cytokine kit (Mesoscale) according to manufacturer instructions. The data was analyzed using GraphPad Prism to calculate absolute changes in cytokine relative to the DMSO vehicle control.

The test system of test [1] is OPM2 (multiple myeloma) cells. Nature of the test: Murine orthotopic OPM-2 tumor model (sensitive), anti-BCMA CAR T cells plus Compound A. Type of test: in vivo, mouse. To be noted: for tumor burden (BLI) versus anti-BCMA CAR T cells alone: combination with 0.5×10^6 CAR T cells, 1 or 3 mg/kg oral, FIG. 6A; for survival versus anti-BCMA CAR T cells alone: FIG. 6B. Here is the method: (§1) Anti-tumor effects of anti-BCMA CAR T cells, alone and in combination with concurrent or delayed administration of Compound A (iberdomide, (S)-3-[4-(4-morpholin ylmethyl-benzyloxy)-1-oxo-1,3-dihydro-isoindol-2-yl]-piperidine-2,6-dione), were assessed in disseminated tumor models. The combinatorial effects were assessed in both tumor models sensitive to and resistant to the immunomodulatory compound. The anti-BCMA CAR T cells used in the study were produced as described in Example 1.
The effects of anti-BCMA CAR-T cells in combination with Compound A was assessed in a murine orthotopic tumor model using OPM-2 cells, which is an tumor model sensitive to the immunomodulatory compound. Mice (NOD.Cg-Prkdc^scidIL-2rg^tm1Wj1/SzJ mice (NSG; Jackson Labs)) were injected intravenously (i.v.) with 2×10^6 OPM2 (multiple myeloma) cells transfected with firefly luciferase (OPM2-ffluc). Tumor engraftment was allowed to occur for 13 days prior to staging (14 days before CAR-T cell administration) and verified using bioluminescence imaging.
In one study, mice were administered Compound A (1 mg/kg or 3 mg/kg) via oral administration once a day starting from the day before administration of 0.5×10^6 anti-BCMA CAR T cells, and administration of Compound A was continued once a day until 32 days post-CAR T cell administration (concurrent dosing). In another study, mice were administered 0.5×10^6 anti-BCMA CAR T cells, and then Compound A (1 mg/kg or 3 mg/kg) was administered via oral administration once a day starting 12 days after anti-CAR T cell administration, which was after the peak of CAR-expressing T cell expansion, and administration was continued for 21 days until 32 days post-CAR T cell administration (delayed dosing).
For bioluminescence imaging (BLI), mice received intraperitoneal (i.p.) injections of luciferin substrate (CaliperLife Sciences, Hopkinton, Mass.) resuspended in PBS (15 μg/g body weight). The average radiance (p/s/cm^2/sr) was determined. Survival of mice treated as described above were assessed and compared over time post-infusion of CAR-expressing T cells. Survival curves were generated using the Kaplan-Meier method (GraphPad Prism 7.0, GraphPad Software, La Jolla).
(§2) The numbers of CD3+ CAR T cells were determined in the blood at day 6 and day 14 by flow cytometry using antibodies directed against CD3 and the surrogate marker on the CAR-expressing cells.

Another test concerns CAR-expressing T cells. In words: Prolonged treatment: long-term proliferative potential of CAR-expressing T cells. It counts as cell-based. The arrangement: long term product performance: dose or concentration left out as unconfirmed.
Test [2] deals with DF-15(R) (multiple myeloma) cells. Nature of the test: Murine orthotopic DF-15(R) tumor model (resistant), anti-BCMA CAR T cells plus Compound A. Type of test: in vivo, mouse. To be noted: combination. The procedure: as §1
The effects of anti-BCMA CAR-T cells in combination with Compound A was assessed in a murine orthotopic tumor model using DF-15(R) cells, which is a tumor model that is resistant to the immunomodulatory compound. Mice (NOD.Cg-Prkdc^scidIL-2rg^tm1Wj1/SzJ mice (NSG; Jackson Labs)) were injected intravenously (i.v.) with 2×10^6 DF-15(R) (multiple myeloma) cells transfected with firefly luciferase ([…]). Tumor engraftment was allowed to occur for 13 days prior to staging (14 days before CAR-T cell administration) and verified using bioluminescence imaging.
In one study, mice were administered Compound A (1 mg/kg or 3 mg/kg) via oral administration once a day starting from the day before administration of 0.5×10^6 anti-BCMA CAR T cells, and administration of Compound A was continued once a day until 32 days post-CAR T cell administration (concurrent dosing). […]
For bioluminescence imaging (BLI), mice received intraperitoneal (i.p.) injections of luciferin substrate (CaliperLife Sciences, Hopkinton, Mass.) resuspended in PBS (15 μg/g body weight). The average radiance (p/s/cm^2/sr) was determined. Survival of mice treated as described above were assessed and compared over time post-infusion of CAR-expressing T cells. […]
as §2

Regarding `O=C1CC[C@H](N2Cc3c(OCc4ccc(CN5CCOCC5)cc4)cccc3C2=O)C(=O)N1` [Compound A, (S)-3-[4-(4-morpholin-4-ylmethyl-benzyloxy)-1-oxo-1,3-dihydro-isoindol-2-yl]-piperidine-2,6-dione], the “cytolytic activity after long-term stimulation in the presence of compound” value with RPMI-8226 target cells (Example 7: E:T 0.3:1, lenalidomide 1000 nM, Compound A 1 or 10 nM, FIG. 9A) is “increased cytolytic activity”. Also, in the test on RPMI-8226 target cells (Example 7: supernatant at 24 hours, relative to DMSO, FIG. 9B), the “production of IFN-gamma” value is “increased production”. In addition, in the test on RPMI-8226 target cells (Example 7: supernatant at 24 hours, relative to DMSO, FIG. 9C), the “production of IL-2” value is on record as “increased production”. Besides, the “production of TNF-alpha” value in the test with RPMI-8226 target cells (Example 7: supernatant at 24 hours, relative to DMSO, FIG. 9D) is recorded as “increased production”. Moreover, in test [1] (Compound A alone, 1 or 3 mg/kg oral once a day), the “single agent antitumor activity” value is on record as “some single agent antitumor activity”. Besides, the “tumor burden (BLI) versus anti-BCMA CAR T cells alone” value in test [1] (concurrent dosing) is “reduce tumor burden”; in test [1] (delayed dosing from day 12), “reduce tumor burden”; in test [2] (concurrent dosing, 1 or 3 mg/kg oral, FIG. 7A), “reduce tumor burden”. The “survival versus anti-BCMA CAR T cells alone” value in test [1] (combination, concurrent dosing) is reported as “improve survival”; in test [1] (combination, delayed dosing) it was “improve survival”; in test [2] (concurrent dosing, FIG. 7B), “improve survival”. In addition, the “numbers of CD3+ CAR+ T cells in the blood” value is on record as “trend towards increased numbers” in test [1] (combination, concurrent regimen, day 6 and day 14, FIG. 6C); “statistically significant increase” in test [2] (concurrent regimen, low and high dose, day 6 and day 14, FIG. 7C). The “long term product performance” value in the test with CAR-expressing T cells (higher concentrations) was “detrimental”. Also, in the test on CAR-expressing T cells (prolonged treatment, 10 or 100 nM), the “long-term proliferative potential of CAR-expressing T cells” value is recorded as “increase long-term proliferative potential”.
